This is an account of results in publication PMC3090393, “New Noncovalent Inhibitors of Penicillin-Binding Proteins from Penicillin-Resistant Bacteria” (PLoS ONE, 2011).

SMILES strings stand for the structures. In brackets after ≈: the same amount, converted by molar mass.

PBP5fm, sequence (Q47759 entry or part of it): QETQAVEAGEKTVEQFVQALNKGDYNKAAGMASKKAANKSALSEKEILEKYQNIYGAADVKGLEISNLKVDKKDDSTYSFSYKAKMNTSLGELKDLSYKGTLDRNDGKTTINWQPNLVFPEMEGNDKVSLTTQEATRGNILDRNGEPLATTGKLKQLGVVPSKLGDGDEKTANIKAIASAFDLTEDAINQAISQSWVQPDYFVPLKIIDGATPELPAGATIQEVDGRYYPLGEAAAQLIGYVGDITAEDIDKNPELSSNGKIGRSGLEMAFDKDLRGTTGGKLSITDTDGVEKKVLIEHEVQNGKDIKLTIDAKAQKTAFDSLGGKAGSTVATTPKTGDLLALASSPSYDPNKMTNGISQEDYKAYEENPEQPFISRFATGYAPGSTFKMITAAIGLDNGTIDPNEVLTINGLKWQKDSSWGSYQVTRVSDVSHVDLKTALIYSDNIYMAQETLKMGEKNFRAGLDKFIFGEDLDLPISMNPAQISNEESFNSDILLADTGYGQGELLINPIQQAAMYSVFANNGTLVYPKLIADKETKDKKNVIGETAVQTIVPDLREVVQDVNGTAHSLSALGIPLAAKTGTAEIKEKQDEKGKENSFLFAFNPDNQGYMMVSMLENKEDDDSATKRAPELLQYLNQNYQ
T1 sequence (P07944 whole entry): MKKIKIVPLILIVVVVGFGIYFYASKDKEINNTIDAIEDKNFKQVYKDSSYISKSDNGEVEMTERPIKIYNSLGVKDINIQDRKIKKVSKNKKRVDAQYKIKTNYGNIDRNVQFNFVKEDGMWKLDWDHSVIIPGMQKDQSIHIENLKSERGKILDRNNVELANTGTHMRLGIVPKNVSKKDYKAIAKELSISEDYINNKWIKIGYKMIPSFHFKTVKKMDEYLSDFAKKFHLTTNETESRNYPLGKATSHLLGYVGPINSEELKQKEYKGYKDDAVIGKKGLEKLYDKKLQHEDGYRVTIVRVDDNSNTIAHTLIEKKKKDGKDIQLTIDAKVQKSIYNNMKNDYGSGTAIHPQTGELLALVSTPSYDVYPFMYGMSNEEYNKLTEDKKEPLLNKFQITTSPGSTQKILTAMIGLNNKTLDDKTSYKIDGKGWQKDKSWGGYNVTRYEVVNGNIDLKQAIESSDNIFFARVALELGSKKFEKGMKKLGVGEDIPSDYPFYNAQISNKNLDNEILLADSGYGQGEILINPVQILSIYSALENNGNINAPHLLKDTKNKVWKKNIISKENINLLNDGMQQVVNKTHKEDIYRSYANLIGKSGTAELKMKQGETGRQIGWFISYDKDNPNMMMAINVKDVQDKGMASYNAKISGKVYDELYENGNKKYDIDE

The first assay deals with PBP5fm (Enterococcus faecium, UniProt Q47759). As to the kind of experiment: PBP5fm enzymatic inhibition assay (fluorescein-labeled ampicillin, residual penicillin binding activity). Conditions: 4 h; residual activity of the enzyme at 1 mM inhibitor; 0.01% Triton X-100; read-out: PBP5fm RA [%]. It counts as biochemical, Enterococcus faecium D63r. On the procedure:
(§1) PBP2a from Staphylococcus aureus ATCC 43300 and PBP5fm from Enterococcus faecium D63r were overproduced and purified as described previously, [18].
(§2) Each of the purified PBPs (2.5 µM) were first incubated with 1 mM potential inhibitor in 100 mM phosphate buffer, 0.01% Triton X-100[19], pH 7, for 4 h at 30°C. Then, 25 µM fluorescein-labeled ampicillin[20] was added to detect the residual penicillin binding activity (RA). The samples were further incubated for 30 min at 37°C in a total volume of 20 µL. Denaturation buffer was added (0.1 M Tris/HCl, pH 6.8, containing 25% glycerol, 2% SDS, 20% β-mercaptoethanol and 0.02% bromophenol blue) and the samples were heated to 100°C for 1 min. The samples were then loaded onto a 10% SDS-acrilamide gel (10×7 cm) and electrophoresis was performed for 45 min at 180 V (12 mA). Detection and quantification of the RAs were with Molecular Image FX equipment and Quantity One software (BioRad, Hercules, CA, USA). Three independent experiments were carried out for each inhibitor.
Consider `CCCOc1cccc(C(=O)Nc2ccc(O)cc2C(=O)O)c1` [compound 11, 5-Hydroxy-2-(3-propoxybenzamido)benzoic acid], for which the activity at 1000 µM came out at 61%.

The next assay has as its system Streptococcus pneumoniae D39. As to the kind of experiment: In-vitro antibacterial activity (MIC, broth microdilution). It counts as cell-based.
Settings: not given
On the procedure: (§3) Determination of the antibacterial activities was carried out on microtiter plates, in 200 µL (final volume) of Müeller-Hinton Broth (MHB), following EUCAST (European Committee on Antimicrobial Susceptibility testing)/CLSI (Clinical and Laboratory Standard Institute) recommended procedures, [25]. The compounds were solubilized in MHB, just before use. Inocula were prepared for each strain by resuspending isolated colonies from 18 h cultured plates. Equivalents of 0.5 Mac Farland turbidity standards (approximately 1×10^8 CFU mL^−1) were prepared in saline solution ([…]) and then diluted 200-fold in MBH.
In turn, `CC1(C)S[C@@H]2[C@H](NC(=O)[C@H](N)c3ccccc3)C(=O)N2[C@H]1C(=O)O` [Ampicillin, reference compound] came in with an MIC of 0.06 µg/mL (≈ 0.172 µM).

For the next assay, the system named is Staphylococcus aureus ATCC 43300 (MRSA). Described as above. It counts as cell-based.
Settings: not given
On the procedure:
as §3
`CC1(C)S[C@@H]2[C@H](NC(=O)[C@H](N)c3ccccc3)C(=O)N2[C@H]1C(=O)O` [Ampicillin, reference compound] gave an MIC of 1020 µg/mL (≈ 2930 µM).

For another assay, the system named is Pseudomonas aeruginosa ATCC 27853. The assay is described as above. It counts as cell-based. As to conditions: ATCC27853. The procedure:
as §3
As for `CC1(C)S[C@@H]2[C@H](NC(=O)[C@H](N)c3ccccc3)C(=O)N2[C@H]1C(=O)O` [Ampicillin, reference compound], the minimum inhibitory concentration (MIC) is more than 1020 µg/mL.

The subject of another assay is Enterococcus faecalis ATCC 29212. The description is as above. In kind it is cell-based. As to conditions: ATCC29212. On the procedure:
as §3
Compound `CC1(C)S[C@@H]2[C@H](NC(=O)[C@H](N)c3ccccc3)C(=O)N2[C@H]1C(=O)O` [Ampicillin, reference compound] gave an MIC of 2 µg/mL (≈ 5.72 µM).

Another assay relates to Staphylococcus epidermidis ATCC 12228. Described as above. It counts as cell-based. As to conditions: ATCC12228. The procedure: as §3
For `CC1(C)S[C@@H]2[C@H](NC(=O)[C@H](N)c3ccccc3)C(=O)N2[C@H]1C(=O)O` [Ampicillin, reference compound], the minimal inhibitory concentration (MIC) amounted to 16 µg/mL (≈ 45.8 µM).

In the next assay the test system is Citrobacter freundii ATCC 8090. The description is as above. It counts as cell-based. Conditions: ATCC8090. On the procedure: as §3
For `CC1(C)S[C@@H]2[C@H](NC(=O)[C@H](N)c3ccccc3)C(=O)N2[C@H]1C(=O)O` [Ampicillin, reference compound], the minimal inhibitory concentration (MIC) came to 128 µg/mL (≈ 366 µM).

Another assay deals with Streptococcus pneumoniae ATCC 49619. The description is as above. In kind it is cell-based. As to conditions: ATCC49619. On the procedure:
as §3
Compound `CC1(C)S[C@@H]2[C@H](NC(=O)[C@H](N)c3ccccc3)C(=O)N2[C@H]1C(=O)O` [Ampicillin, reference compound] gave an MIC of 0.06 µg/mL (≈ 0.172 µM).

A further assay relates to Bacillus subtilis ATCC 6633. Described as above. It counts as cell-based. As to conditions: ATCC6633. The procedure:
as §3
In the case of `CC1(C)S[C@@H]2[C@H](NC(=O)[C@H](N)c3ccccc3)C(=O)N2[C@H]1C(=O)O` [Ampicillin, reference compound], the lowest concentration to inhibit growth (MIC) was 0.5 µg/mL (≈ 1.43 µM).

The next assay relates to Listeria monocytogenes ATCC 14780. The assay is described as above. In kind it is cell-based. As to conditions: ATCC14780. The procedure: as §3
`CC1(C)S[C@@H]2[C@H](NC(=O)[C@H](N)c3ccccc3)C(=O)N2[C@H]1C(=O)O` [Ampicillin, reference compound] yielded an MIC of 0.5 µg/mL (≈ 1.43 µM).

Another assay relates to Streptococcus pneumoniae ATCC 33400. The description is as above. It counts as cell-based. Conditions: ATCC33400. On the procedure:
as §3
For `CC1(C)S[C@@H]2[C@H](NC(=O)[C@H](N)c3ccccc3)C(=O)N2[C@H]1C(=O)O` [Ampicillin, reference compound], the MIC amounted to 0.03 µg/mL (≈ 0.0859 µM).

A further assay deals with Enterococcus hirae ATCC 8790. The description is as above. In kind it is cell-based. As to conditions: ATCC8790. The procedure: as §3
The compound `CC1(C)S[C@@H]2[C@H](NC(=O)[C@H](N)c3ccccc3)C(=O)N2[C@H]1C(=O)O` [Ampicillin, reference compound] returned an MIC of 64 µg/mL (≈ 183 µM).

Another assay deals with Listeria innocua ATCC 33090. Described as above. It counts as cell-based. As to conditions: ATCC33090. On the procedure:
as §3
`CC1(C)S[C@@H]2[C@H](NC(=O)[C@H](N)c3ccccc3)C(=O)N2[C@H]1C(=O)O` [Ampicillin, reference compound] came in with an MIC of 0.25 µg/mL (≈ 0.715 µM).

The subject of a further assay is Enterococcus faecalis ATCC 7937. Described as above. It counts as cell-based. As to conditions: ATCC7937. On the procedure:
as §3
`CC1(C)S[C@@H]2[C@H](NC(=O)[C@H](N)c3ccccc3)C(=O)N2[C@H]1C(=O)O` [Ampicillin, reference compound] showed an MIC of 2 µg/mL (≈ 5.72 µM).

The subject of a further assay is Escherichia coli ATCC 8739. The description is as above. In kind it is cell-based. As to conditions: ATCC8739. On the procedure: as §3
Compound `CC1(C)S[C@@H]2[C@H](NC(=O)[C@H](N)c3ccccc3)C(=O)N2[C@H]1C(=O)O` [Ampicillin, reference compound] returned an MIC of 4 µg/mL (≈ 11.4 µM).

A further assay has as its system Enterococcus faecium ATCC 19434. Described as above. It counts as cell-based. Conditions: ATCC19434. On the procedure: as §3
As for `CC1(C)S[C@@H]2[C@H](NC(=O)[C@H](N)c3ccccc3)C(=O)N2[C@H]1C(=O)O` [Ampicillin, reference compound], 64 µg/mL (≈ 183 µM) was the least that counted as inhibitory (MIC).

The test system of another assay is Staphylococcus aureus mp 1 (inducible MRSA). The assay is described as above. It counts as cell-based.
Settings: not given
On the procedure: as §3
`CC1(C)S[C@@H]2[C@H](NC(=O)[C@H](N)c3ccccc3)C(=O)N2[C@H]1C(=O)O` [Ampicillin, reference compound] showed an MIC of 1020 µg/mL (≈ 2930 µM).

The test system of another assay is Micrococcus luteus ATCC 9341. Described as above. In kind it is cell-based. Conditions: ATCC9341. On the procedure: as §3
With `CC1(C)S[C@@H]2[C@H](NC(=O)[C@H](N)c3ccccc3)C(=O)N2[C@H]1C(=O)O` [Ampicillin, reference compound], the lowest concentration to inhibit growth (MIC) was 0.5 µg/mL (≈ 1.43 µM).

The next assay relates to Proteus mirabilis ATCC 29936. Described as above. In kind it is cell-based. Conditions: ATCC29936. On the procedure:
as §3
`CC1(C)S[C@@H]2[C@H](NC(=O)[C@H](N)c3ccccc3)C(=O)N2[C@H]1C(=O)O` [Ampicillin, reference compound] displayed an MIC of 2 µg/mL (≈ 5.72 µM).

For the next assay, the system named is Klebsiella pneumoniae ATCC 13883. The assay is described as above. It counts as cell-based. As to conditions: ATCC13883. The procedure:
as §3
As to `CC1(C)S[C@@H]2[C@H](NC(=O)[C@H](N)c3ccccc3)C(=O)N2[C@H]1C(=O)O` [Ampicillin, reference compound], the MIC is 256 µg/mL (≈ 733 µM).

The test system of a further assay is Staphylococcus aureus ATCC 25923. The description is as above. In kind it is cell-based. Conditions: ATCC25923. The procedure: as §3
`CC1(C)S[C@@H]2[C@H](NC(=O)[C@H](N)c3ccccc3)C(=O)N2[C@H]1C(=O)O` [Ampicillin, reference compound]: the MIC came out at 0.25 µg/mL (≈ 0.715 µM).

The next assay has as its target T1, PBP2a (Staphylococcus aureus, UniProt P07944).
T1 construct: made in house
As to the kind of experiment: PBP2a enzymatic inhibition assay (fluorescein-labeled ampicillin, residual penicillin binding activity). Conditions: 4 h; residual activity of the enzyme at 1 mM inhibitor; 0.01% Triton X-100; mean of three experiments; read-out: PBP2a RA [%]. It counts as biochemical, Staphylococcus aureus ATCC 43300. The procedure:
as §1, §2
With `CCCOc1cccc(C(=O)Nc2ccc(O)cc2C(=O)O)c1` [compound 11, 5-Hydroxy-2-(3-propoxybenzamido)benzoic acid], the remaining activity at 1000 µM is 70%.

In another assay the target is PBP2x 5204 (Streptococcus pneumoniae, UniProt P59676). Put plainly: PBP2x 5204 enzymatic inhibition assay (S2d hydrolysis, DTNB). As to conditions: residual activity of the enzyme at 1 mM inhibitor; 240 min. In kind it is biochemical, Streptococcus pneumoniae strain 5204. On the procedure: PBP2x-5204 from Streptococcus pneumonia and N-benzoyl-D-alanyl-thioglycolate S2d[21], [22] were prepared as previously described. All assays with PBP2x 5204 were carried out in 96-well microtiter plates (Brand, Wertheim, Germany). PBP2x 5204 (0.6 µM) was incubated in the presence of the potential inhibitors in 10 mM sodium phosphate buffer (pH 7.0) containing 70 mM D-alanine and 0.01 mg/mL BSA, for 4 h at 25°C. This preincubation was used to also detect slow binding inhibitors. After the preincubation, the RA of PBP2x 5204 was determined. The initial rate of hydrolysis of 1 mM S2d in the presence of 1 mM DTNB was determined by monitoring the increase in absorbance at 412 nm (DTNB: ε[Δ ε] = […]) using a microplate absorbance reader (Power Wave X, Biotek Instruments, Winooski, U.S.A.). The rate of spontaneous hydrolysis of S2d in the presence of the potential inhibitors was also determined in the absence of PBP2x 5204. All of the assays were carried out in triplicate. The determination of the RA of PBP2x 5204 in the absence of inhibitors was carried out six times on each plate. A test compound was considered as an inhibitor if the RA was <80%. In this case, to reveal false positives, the assays were also carried out under the same conditions in the presence of 0.01% Triton X-100. As described in the literature, promiscuous inhibitors (false positives) are slow binding, noncompetitive inhibitors. To avoid detailed kinetic investigations, it is possible to identify such compounds by carrying out the assays in the presence of Triton X-100[14], [19]. Promiscuous inhibitors show no inhibition in the presence of Triton X-100. The IC50 values in the presence of Triton X-100 were determined if the RAs were <50%. (RA: ∼50%, IC50∼c, c: concentration of compound in the assay; RA >50%, IC50 > c). The RA was measured over a range of concentrations, from which the IC50 values were determined by non-linear regression analysis, using Sigma Plot (Systat software) and fitting the data to the equation y = y0+(a×b)/(b+x)[23].
PBP2x 5204, sequence (P59676 49-750): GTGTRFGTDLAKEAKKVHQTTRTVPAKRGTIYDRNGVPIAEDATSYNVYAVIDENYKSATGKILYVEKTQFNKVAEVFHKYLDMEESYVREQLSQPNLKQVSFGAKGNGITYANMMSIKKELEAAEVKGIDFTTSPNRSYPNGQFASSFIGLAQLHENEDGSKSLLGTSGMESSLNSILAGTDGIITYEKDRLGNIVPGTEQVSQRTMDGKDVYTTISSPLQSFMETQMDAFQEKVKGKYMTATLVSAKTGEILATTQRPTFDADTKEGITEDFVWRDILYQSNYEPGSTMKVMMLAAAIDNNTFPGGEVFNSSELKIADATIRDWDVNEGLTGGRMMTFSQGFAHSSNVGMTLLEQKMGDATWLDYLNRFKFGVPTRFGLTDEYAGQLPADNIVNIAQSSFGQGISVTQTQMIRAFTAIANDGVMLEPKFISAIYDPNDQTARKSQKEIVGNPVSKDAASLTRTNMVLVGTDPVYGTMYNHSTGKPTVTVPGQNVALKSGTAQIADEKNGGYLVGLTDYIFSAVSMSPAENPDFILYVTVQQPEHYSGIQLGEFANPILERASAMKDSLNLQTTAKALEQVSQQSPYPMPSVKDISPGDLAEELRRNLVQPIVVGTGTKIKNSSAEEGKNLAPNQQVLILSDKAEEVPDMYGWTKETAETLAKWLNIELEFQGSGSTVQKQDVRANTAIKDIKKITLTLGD
On to `CCCOc1cccc(C(=O)Nc2ccc(O)cc2C(=O)O)c1` [compound 11, 5-Hydroxy-2-(3-propoxybenzamido)benzoic acid], for which the “PBP2x5204 RA [%]” value was found to be 118%.

Usually MIC stands for the lowest concentration found to suppress growth. Read a low MIC as greater potency.
